Experimental findings from the COVID Moonshot data (paper PMC7615835) are described below.

The conditions of data set [1]: in vivo, iv.
For data set [2] the following is noted: rat; in vivo; po; 10.0 mg/kg.
For data set [3] the following is noted: human; plasma.
The conditions of data set [4]: human; liver_microsomes.
Data set [5] addresses SARS-CoV-2 Main Protease (SARS-CoV-2) (UniProt P0DTD1).
The conditions of data set [6]: dog; liver_microsomes.
For data set [7] the following is noted: rat; plasma.
Test in data set [8]: not given
The source holds these as a separate data set.

The conditions of data set [9]: mouse; plasma.
For data set [10] the following is noted: a549.
The conditions of data set [11]: mouse; liver_microsomes.
For data set [12], the system named is SARS-CoV-2 (SARS-CoV-2). The settings on record: helaace2.
Test in data set [13]: not given
The source holds these as a separate data set.

Data set [14] deals with PSP (Eurofins): hr ERalpha (Binding) (AC50) (UniProt P03372).
UniProt P03372, sequence (P03372 whole entry, looked up): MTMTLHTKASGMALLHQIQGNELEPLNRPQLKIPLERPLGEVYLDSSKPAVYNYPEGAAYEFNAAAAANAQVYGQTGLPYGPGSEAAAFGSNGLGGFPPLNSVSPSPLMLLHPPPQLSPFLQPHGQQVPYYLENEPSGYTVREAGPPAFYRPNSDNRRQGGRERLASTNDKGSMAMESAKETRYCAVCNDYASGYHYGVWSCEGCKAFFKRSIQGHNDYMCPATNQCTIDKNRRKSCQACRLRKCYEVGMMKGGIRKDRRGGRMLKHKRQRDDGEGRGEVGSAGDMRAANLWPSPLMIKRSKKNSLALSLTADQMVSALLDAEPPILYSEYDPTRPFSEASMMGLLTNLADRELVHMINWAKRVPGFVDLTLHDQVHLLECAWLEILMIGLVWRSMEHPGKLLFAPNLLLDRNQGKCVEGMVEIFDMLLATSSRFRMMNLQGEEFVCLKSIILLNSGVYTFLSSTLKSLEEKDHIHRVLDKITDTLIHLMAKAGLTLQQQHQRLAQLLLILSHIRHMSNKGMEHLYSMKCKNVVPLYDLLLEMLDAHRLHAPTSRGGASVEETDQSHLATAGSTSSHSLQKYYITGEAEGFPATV
For data set [15] the following is noted: pampa.

pEC50, pIC50: −log10 of the molar value. Several values for one entry are separate records, joined by “and”; a condition that tells them apart may be missing. Equal values may be shown once.

As to `O=C(Nc1cncc2ccccc12)C1CCS(=O)(=O)c2ccc(Cl)cc21` (centres undefined), the logD is 2. Also, in data set [1] (mouse, 0.5 mg/kg), the AUC(0-inf) was 192 ng·h/mL and 207 ng·h/mL; the AUC(0-t) was 190 ng·h/mL and 204 ng·h/mL; the C0 is 460 ng/mL and 586 ng/mL; the MRT inf is 26.5 min and 25.2 min. Besides, in data set [1] (mouse, 0.5 mg/kg), the MRT last is 25.1 min and 23.6 min; the Vd is 1.09 L/kg and 0.972 L/kg; the clearance was 41.3 mL/min/kg and 38.6 mL/min/kg; the half-life is 18.4 min and 19.9 min. Also, in [1] (rat, 2.0 mg/kg), the AUC(0-inf) was determined as 2890 ng·h/mL; the AUC(0-t) is 2850 ng·h/mL and 2840 ng·h/mL; the C0 was 1400 ng/mL and 1460 ng/mL; the MRT inf is 112 min and 98.4 min. Besides, in data set [1] (rat, 2.0 mg/kg), the mean residence time (MRT last) was 92.4 min and 101 min; the Vd is 1.13 L/kg and 1.29 L/kg; the clearance is 11.5 mL/min/kg and 11.6 mL/min/kg; the half-life is 78 min and 88.2 min. In data set [2], this molecule came in with an AUC(0-inf) of 14300 ng·h/mL, an AUC(0-t) of 14300 ng·h/mL, a CL/F of 11.9 mL/min/kg and an MRT inf of 205 min. For the same molecule, in data set [2], the MRT last was found to be 205 min, the Tmax was 60 min and the half-life turned out to be 115 min. In data set [3], the fraction unbound is 0.106 and 0.125; the recovery came out at 96.9%. In addition, the microsomal CLint in data set [4] was 10 µL/min/mg. This molecule also showed a pIC50 in data set [5] of 6.54. In data set [6], the half-life was 69 min. Moreover, in [7], the fraction unbound is 0.2 and the recovery was 98%.

As to `O=C(Nc1cncc2c1CCCC2)C1CCNc2cc(Cl)c(Cl)cc21` (centres undefined), the logD worked out at 3.9.

For `O=C(Nc1cncc2ccccc12)C1CN(S(=O)(=O)C2CNC2)Cc2ccc(Cl)cc21` (centres undefined), the logD turned out to be 1.4. The molecule further gave a pIC50 in [5] of 6.56.

`CS(=O)(=O)N1Cc2ccc(Cl)cc2[C@H](C(=O)Nc2cncc3ccccc23)C1` (stereo in doubt): the logD was 2.2.

`N#CC1(CS(=O)(=O)N2Cc3ccc(Cl)cc3C(C(=O)Nc3cncc4ccccc34)C2)CNC1` (centres undefined) displayed a logD of 1.8. Also, in data set [1] (rat, 0.5 mg/kg), the AUC(0-inf) was 101 ng·h/mL and 104 ng·h/mL; the AUC(0-t) is 99.7 ng·h/mL and 102 ng·h/mL; the C0 is 417 ng/mL and 369 ng/mL; the MRT inf is 24.5 min and 22.7 min. Also, in [1] (rat, 0.5 mg/kg), the MRT last is 20.7 min and 22.2 min; the Vd is 1.55 L/kg and 1.68 L/kg; the clearance is 68.6 mL/min/kg and 67.4 mL/min/kg; the half-life was 20.8 min and 21.5 min. The pIC50 in data set [5] was 6.77.

Molecule `CN1CCN(S(=O)(=O)N2Cc3ccc(Cl)cc3C(C(=O)Nc3cncc4ccccc34)C2)CC1` (centres undefined) registered a logD of 2.1. Moreover, in data set [1] (rat, 0.5 mg/kg), the AUC(0-inf) was 88 ng·h/mL and 85 ng·h/mL; the AUC(0-t) was 84.3 ng·h/mL and 82.4 ng·h/mL; the C0 was 211 ng/mL and 112 ng/mL; the MRT inf is 56.3 min and 30.7 min. Also, in data set [1] (rat, 0.5 mg/kg), the MRT last was 24.9 min and 47.2 min; the Vd was 1.6 L/kg and 3.12 L/kg; the clearance is 52.1 mL/min/kg and 55.5 mL/min/kg; the half-life was 29.6 min and 52.7 min. Moreover, the pIC50 in [5] is 6.94.

Molecule `C[C@@H]1C[C@@H](C(=O)Nc2cncc3ccccc23)c2cc(Cl)ccc2O1` (stereo in doubt) came in with a logD of 3.4. In [5], the pIC50 was 6.64.

`O=C(Nc1cncc2ccncc12)[C@H]1CCOc2ccc(Cl)cc21` (stereo in doubt) registered a logD of 2.6. Further, in data set [1] (mouse, 0.5 mg/kg), the AUC(0-inf) is 113 ng·h/mL and 122 ng·h/mL; the AUC(0-t) was 112 ng·h/mL and 118 ng·h/mL; the C0 was 525 ng/mL and 604 ng/mL; the MRT inf is 13.7 min and 14.6 min. Besides, in data set [1] (mouse, 0.5 mg/kg), the MRT last is 13 min; the Vd is 1.01 L/kg and 1 L/kg; the clearance was 73.5 mL/min/kg and 68.7 mL/min/kg; the half-life was 9.48 min and 11.9 min. In [8], the logD is 2.59 and 2.5. For the same molecule, in data set [9], the fraction unbound came to 0.219 and the recovery was 102%. In data set [10], the CC50 is more than 9990 nM. In data set [11], the half-life came to 7.8 min and the microsomal CLint was 223 µL/min/mg.

On to `Cc1cccc(/C=N/Nc2cc(N3CCOCC3)nc(OCCc3ccccn3)n2)c1`, for which, in [12], the pEC50 was > 8.00 and 7.83 and 7.64; the EC90 is 158 nM and 70.8 nM and 82.9 nM.

As for `O=C(Nc1cncc2ccccc12)C1CN(S(=O)(=O)CC2CNC2)Cc2ccc(Cl)cc21` (centres undefined), the logD amounted to 0.2. In [1] (rat, 0.5 mg/kg), the AUC(0-inf) was 83.4 ng·h/mL and 86.5 ng·h/mL; the AUC(0-t) is 76.9 ng·h/mL and 76.7 ng·h/mL; the C0 was 406 ng/mL and 381 ng/mL; the mean residence time (MRT inf) was 67.2 min and 61.8 min. In addition, in data set [1] (rat, 0.5 mg/kg), the MRT last was 33.2 min and 32 min; the volume of distribution (Vd) was 5.86 L/kg and 6.06 L/kg; the clearance was 94.6 mL/min/kg and 91.2 mL/min/kg; the half-life came to 91.2 min. In data set [3], this molecule showed a fraction unbound of 0.295. In data set [13] (mdck), this molecule showed a Fa of 30.7%, an apparent permeability from apical to basolateral (Papp A→B) of 1.6 ×10⁻⁶ cm/s and a recovery of 93%. In data set [13] (mdck_mdr1), the Papp A→B was 0.517 ×10⁻⁶ cm/s and 0.7 ×10⁻⁶ cm/s; the Papp B→A is 0.896 ×10⁻⁶ cm/s and 0.9 ×10⁻⁶ cm/s. Further, the microsomal CLint in data set [4] stood at 10 µL/min/mg. The AC50 in data set [14] came out at 20400 nM. In data set [7], this molecule registered a fraction unbound of 0.335.

In turn, `CS(=O)(=O)c1ccc2cncc(NC(=O)C3CCNc4cc(Cl)c(Cl)cc43)c2c1` (centres undefined) gave a logD of 3.1. Also, in data set [1] (rat, 0.5 mg/kg), the area under the curve AUC(0-inf) was 285 ng·h/mL and 378 ng·h/mL and 178 ng·h/mL; the AUC(0-t) is 282 ng·h/mL and 377 ng·h/mL and 175 ng·h/mL; the C0 was 741 ng/mL and 1320 ng/mL and 725 ng/mL; the MRT inf was 28.6 min and 41 min and 22.8 min. For the same molecule, in [1] (rat, 0.5 mg/kg), the MRT last is 38 min and 27.8 min and 21 min; the Vd is 1.2 L/kg and 0.645 L/kg and 1.15 L/kg; the clearance is 29.2 mL/min/kg and 22.4 mL/min/kg and 50.2 mL/min/kg; the half-life was 38.9 min and 29.9 min and 21.2 min. In data set [10], the CC50 was more than 9990 nM. The same molecule showed a negative logarithm of the IC50 (pIC50) in data set [5] of 6.28.

In data set [15], `C=CC(=O)N(C(=O)C1COc2ccc(Cl)cc21)c1cncc2ccccc12` (centres undefined) displayed a Papp of 435 ×10⁻⁶ cm/s.

In general, AUC(0-inf) refers to the area under the concentration-time curve extrapolated to infinity. Read a high AUC(0-inf) as high exposure. As a reminder, the AUC(0-t) is the area under the concentration-time curve up to a stated or last time point. What is called MRT inf is a mean duration of stay, worked out from the concentration-time curve. Usually MRT last stands for a mean duration of stay, worked out from the concentration-time curve. In general, Vd refers to the apparent volume that relates the amount in the body to the concentration in plasma or blood. A high value points to extensive tissue distribution. What is called clearance is a measure of how efficiently the substance is removed, as volume per time. A low value points to inefficient removal. What is called half-life is how long it takes for the measured level to halve. Higher therefore signals slow loss. The term CL/F denotes clearance divided by bioavailability, as obtained after extravascular dosing. What is called Tmax is the time at which the peak concentration occurs. In general, logD refers to the decadic logarithm of the distribution of all forms, ionised or not, between an organic phase and buffer at a given pH. Lower therefore signals a more hydrophilic compound. One may read the fraction unbound as the share of the substance not bound to proteins or other matrix. A higher fraction unbound goes with much free substance. Usually microsomal CLint stands for the capacity of the preparation to metabolise the compound, expressed as a volume cleared per time. Low readings indicate slow turnover, high ones rapid turnover. In general, pIC50 refers to the negative decadic logarithm of the IC50, by convention in mol/L. Read a high pIC50 as a low IC50. In general, pEC50 refers to −log10 of the EC50, conventionally taken in molar units. As usually defined, the EC90 is the concentration at which the effect reaches the 90% level. A low value points to greater potency. As a reminder, the Papp A→B is how fast a substance crosses the layer from the apical side. Broadly, the Papp B→A is the apparent permeability from the basolateral to the apical side of a cell layer. What is called AC50 is the midpoint of the concentration-response curve, whichever way the signal moves. Broadly, the Papp is a coefficient for how fast a substance crosses the barrier. Lower therefore signals slow passage.
